Measured values: article PMC12239973 (Science Advances, 2025)
Entries after “also recorded” stand apart in the source; their conditions may differ. Like-named read-outs stand apart in the source and are kept apart here.

Tests used:
C3 [1] = experiment: C3 opsonization of SPIO NWs in mouse serum in vitro; format: biochemical, BALB/c mice
human C5a release = experiment: C5a release in the fluid phase of human serum with nanoparticles, ELISA; format: biochemical; conditions: for inhibition of C5a release: 100 μM; for IC50: read-out: C5a, IC50
C3 [2] = experiment: C3 opsonization of SPIO NWs in dog sera in vitro; format: biochemical; conditions: 10 μM, five breeds
C3 [3] = experiment: C3 opsonization of SPIO NWs in rat serum in vitro; format: biochemical, Sprague-Dawley rats; conditions: 100 μM
human C3 deposition = experiment: C3 deposition on nanoparticles in human serum, C3 dot-blot immunoassay; format: biochemical; conditions: for IC50: read-out: C3, IC50, healthy donor serum
C3d = C3d deposition on PLD in plasma of donors with high anti-PEG titers; format: biochemical, human; conditions: two donors with high anti-PEG titers; EDTA 10 mM; EGTA/Mg2+ 10 mM; sutimlimab 200 μg/ml; iptacopan 10 μM
C3 [4] = format: biochemical, human; conditions: for inhibition of C3 opsonization of PLD, in words: two donors with top 10th percentile anti-PEG IgG/IgM, EGTA/Mg2+ 10 mM
[5] = test system: granulocytes, monocytes, lymphocytes; experiment: Blood leukocyte uptake of bolus-injected SPIO NWs in mice; format: in vivo, BALB/c mice
[6] = test system: granulocytes and monocytes; format: cell-based, human; conditions: CR2-CR1 10 nM, iptacopan 20 μM; for efficacy on uptake across donors, in words: liposomes and LNPs, five donors
blood leukocytes = experiment: Blood leukocyte uptake of bolus-injected SPIO NWs in rats; format: in vivo, Sprague-Dawley rats
mouse C3 = experiment: In vivo C3 opsonization of SPIO NWs in mice; parameters: species or system BALB/c mice; conditions: IV iptacopan, 5 min after the injection
Beagle dogs = experiment: Blood pressure in anesthetized dogs after bolus injection of SPIO NWs; format: in vivo; conditions: iptacopan IV 0.4285 mg/kg
Sprague-Dawley rats = experiment: Rearing behavior of rats after bolus injection of SPIO NWs; format: in vivo
dog C3 = experiment: In vivo C3 opsonization of SPIO NWs in dogs; conditions: Beagle dogs; iptacopan 0.43 mg/kg IV; 30 min postinjection
granulocytes = experiment: Blood leukocyte uptake of bolus-injected SPIO NWs in dogs; format: in vivo; conditions: Beagle dogs; iptacopan 0.43 mg/kg IV coinjected with SPIO NWs 6.6 mg/kg; 30 and 60 min
rat C3 = experiment: In vivo C3 opsonization of SPIO NWs in rats; parameters: species or system Sprague-Dawley rats; conditions: high dose iptacopan 0.99 mg/kg, 60 min postinjection
C3 convertases = conditions: mice and dogs; cited from earlier work
C4d = C4d deposition on PLD in plasma of donors with high anti-PEG titers; format: biochemical, human; conditions: two donors with high anti-PEG titers; EGTA/Mg2+ 10 mM; sutimlimab 200 μg/ml
[7] = EDTA 10 mM, sutimlimab 200 μg/ml, iptacopan 10 μM

Molecule: CC(=O)c1nn(CC(=O)N2C[C@H](F)C[C@H]2C(=O)Nc2cccc(Br)n2)c2ccc(-c3cnc(C)nc3)cc12 [Danicopan, danicopan]
- inhibition in mouse serum, in words (C3 [1]): poor inhibition
- inhibition of C5a release (human C5a release; mRNA LNPs, donor F46): less than 60%
- inhibition of C5a release (human C5a release; mRNA LNPs, donors F38 and M61): completely inhibited
- C5a IC50, in words (human C5a release; mRNA LNPs, sera from three healthy donors): low micromolar
- IC50 (human C5a release; CLIO NWs, human serum): 6.93 nM
- IC50 (human C5a release; Onivyde, human serum): 2580 nM
- IC50 (human C5a release; SPIO NWs, human serum): 6.97 nM
- IC50 (human C5a release; mRNA LNPs, donor F38 (table line matched to Fig. 2C)): 1290 nM
- IC50 (human C5a release; mRNA LNPs, donor F46 (table line matched to Fig. 2C)): 7980 nM
- IC50 (human C5a release; mRNA LNPs, donor M61 (table line matched to Fig. 2C)): 71.2 nM
- inhibition of C3 opsonization in dog sera (C3 [2]): considerably less effective
- inhibition of C3 (C3 [3]): less than 50%
- inhibition of C3 deposition (human C3 deposition; PLD, inhibitor at 100 μM, human serum): less than 50%
- IC50 (human C3 deposition; CLIO NWs): 10800 nM
- IC50 (human C3 deposition; Onivyde): 28100 nM
- IC50 (human C3 deposition; SPIO NWs): 417 nM

Molecule: O=C(O)CN(CCN(CC(=O)O)CC(=O)O)CC(=O)O [EDTA]
- inhibition of C3d deposition on PLD, in words (C3d): full inhibition
- C3 on PLD blocked, on average (C3 [4]; lepirudin plasma, 10 donors, CR2-CR1 10 nM, EDTA 10 mM): ~67%
- inhibition of C3 opsonization of PLD, in words (C3 [4]; [7]): only partially inhibited

Molecule: CCO[C@H]1CCN(Cc2c(OC)cc(C)c3[nH]ccc23)[C@H](c2ccc(C(=O)O)cc2)C1 [Iptacopan, iptacopan]
- iptacopan administered intraperitoneally compared with IV ([5]; IP before SPIO NWs): equally effective
- inhibition of uptake of SPIO NWs by monocytes and lymphocytes ([5]; iptacopan with NWs 10 mg Fe/kg): partial inhibition
- efficacy on uptake across donors, in words [6]: effective in some donors
- efficacy on uptake across donors, in words ([6]; listed as iptacopan): effective in three of five donors
- reduction of SPIO NWs uptake (number of magnetic cells) ([6]; the one donor with measurable uptake): ~ 60%
- inhibition of C3d deposition on PLD, in words (C3d): only partial activity
- inhibition of C3 opsonization in dog sera (C3 [2]): significant inhibition
- inhibition of uptake by granulocytes (blood leukocytes; high-dose iptacopan 0.99 mg/kg, 60 min): significant inhibition
- uptake of SPIO NWs by blood leukocytes (blood leukocytes; iptacopan IV 0.21 mg/kg (low dose) and 0.99 mg/kg (high dose) with SPIO NWs 6.6 mg/kg, 60 min postinjection): inhibited uptake
- C3 opsonization of NWs retrieved from plasma (mouse C3): significantly decreased
- systolic and diastolic pressure after coinjection with SPIO NWs (Beagle dogs): prevents the drop in blood pressure; also recorded: restored
- rearings after coinjection with NWs (Sprague-Dawley rats; low or high dose of iptacopan): significant increase in rearings; also recorded: significantly normalized rearing behavior
- dog C3 opsonization in the blood (dog C3): significantly decreased
- inhibition of C3 opsonization of PLD, in words (C3 [4]; [7]): marginally effective
- inhibition of C3 opsonization of PLD, in words (C3 [4]; EDTA 10 mM, sutimlimab 200 μg/ml, iptacopan 10 μM, listed as iptacopan): minimal inhibition
- number of magnetic granulocytes (granulocytes): significantly reduced
- rat C3 opsonization of NWs blocked (rat C3): more than 90%

Molecule: CR1: human complement receptor 1 (soluble CR1 therapeutics)
- efficacy in animal species (C3 convertases): not effective

Molecule: EGTA/Mg^2+
- inhibition of C3d deposition on PLD, in words (C3d): full inhibition
- inhibition of C4d deposition on PLD, in words (C4d): inhibited
- inhibition of C3 opsonization of PLD, in words (C3 [4]; [7]): strong inhibition

Molecule: PMX53
- rearing behavior after coinjection with NWs (Sprague-Dawley rats; PMX53 1 mg/kg IV, or 3 mg/kg IP + 1 mg/kg IV): did not restore; also recorded: not significantly increased

B1: Sutimlimab: monoclonal antibody that binds C1s; classical pathway inhibitor (antibody, chains of the INN, looked up, V domains shown)
VH: EVQLVESGGGLVKPGGSLRLSCAASGFTFSNYAMSWVRQAPGKGLEWVATISSGGSHTYYLDSVKGRFTISRDNSKNTLYLQMNSLRAEDTALYYCARLFTGYAMDYWGQGTLVTVSS
VL: QIVLTQSPATLSLSPGERATMSCTASSSVSSSYLHWYQQKPGKAPKLWIYSTSNLASGVPSRFSGSGSGTDYTLTISSLQPEDFATYYCHQYYRLPPITFGQGTKLEIK
- inhibition of C3d deposition on PLD, in words (C3d): only partial activity
- inhibition of C4d deposition on PLD, in words (C4d): does not inhibit
- inhibition of C3 deposition on PLD, in words (C3 [4]; lepirudin plasma, 10 donors, sutimlimab 200 μg/ml, iptacopan 10 μM): minimally effective
- inhibition of C3 opsonization of PLD, in words (C3 [4]; [7]): marginal effectiveness; also recorded: minimal inhibition
